Laboratory results: paper PMC8086230 (Acta Pharmacologica Sinica, 2021)
Where two headings read alike, the source gives them in different places.

What was measured:
[1] = not given; remark: listed apart in the source
mock HEK-293 cells = assay: Passive diffusion in mock HEK-293 cells; assay type: in vitro ADME, human
[2] = BCS classification stated in the discussion
human renal 11β-HSD2 = biological target: T1, human renal 11β-HSD2 (Homo sapiens, UniProt P80365); assay type: biochemical; conditions: read-out: Km for human 11β-HSD2
T1 sequence (P80365 1-405): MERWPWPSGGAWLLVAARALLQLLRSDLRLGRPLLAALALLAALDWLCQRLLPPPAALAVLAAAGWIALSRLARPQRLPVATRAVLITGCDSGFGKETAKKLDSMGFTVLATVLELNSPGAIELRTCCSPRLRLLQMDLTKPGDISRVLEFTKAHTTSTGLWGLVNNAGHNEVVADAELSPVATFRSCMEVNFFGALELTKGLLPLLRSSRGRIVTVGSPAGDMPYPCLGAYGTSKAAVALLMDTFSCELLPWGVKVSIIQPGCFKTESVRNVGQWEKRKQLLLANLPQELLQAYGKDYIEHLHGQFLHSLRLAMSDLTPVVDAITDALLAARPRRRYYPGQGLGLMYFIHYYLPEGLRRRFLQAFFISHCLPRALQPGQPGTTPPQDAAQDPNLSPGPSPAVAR

[3] = after orally dosing LianhuaQingwen, 12 capsules/person

22α-hydroxyglycyrrhetic acid-3-O-sulfate
Detection in human plasma and urine samples (in vivo, po): not detected | Detection in rat plasma or urine samples ([1]; rat, in vivo, po): not detected

CC1(C(=O)OC2OC(C(=O)O)C(O)C(O)C2O)CC(O)C2(C)CCC3(C)C(=CC(=O)C4C5(C)CCC(OS(=O)(=O)O)C(C)(C)C5CCC43C)C2C1 (stereo not drawn) [22α-hydroxyglycyrrhetic acid-3-O-sulfate-30-O-glucuronide]
Detection in human plasma and urine samples (in vivo, po): not detected | Detection in rat plasma or urine samples ([1]; rat, in vivo, po): not detected

CC1(C)[C@@H](O[C@H]2O[C@H](C(=O)O)[C@@H](O)[C@H](O)[C@H]2O[C@@H]2O[C@H](C(=O)O)[C@@H](O)[C@H](O)[C@H]2O)CC[C@]2(C)[C@H]3C(=O)C=C4[C@@H]5C[C@@](C)(C(=O)O)CC[C@]5(C)CC[C@@]4(C)[C@]3(C)CC[C@@H]12 [Compound 1, Glycyrrhizin]
transport rate, membrane permeation in mock cells (mock HEK-293 cells): < 5 pmol·min^−1·mg^−1 protein | Presence in human samples (in vivo, po): Plasma, urine, feces | Presence in rat samples ([1]; rat, in vivo, po): Plasma, bile, urine, feces | BCS Class [2]: BCS Class III

CC1(C)[C@@H](O[C@@H]2O[C@H](C(=O)O)[C@@H](O)[C@H](O)[C@H]2O[C@@H]2O[C@H](C(=O)O)[C@@H](O)[C@H](O)[C@H]2O)CC[C@]2(C)[C@H]3C(=O)C=C4[C@@H]5C[C@](C)(C(=O)O)CC[C@]5(C)CC[C@@]4(C)[C@]3(C)CC[C@@H]12 [Compound 3, Licorice saponin H2]
Presence in rat samples ([1]; rat, in vivo, po): Plasma, bile, urine, feces

O=C1C[C@@H](c2ccc(O[C@@H]3O[C@H](CO)[C@@H](O)[C@H](O)[C@H]3O)cc2)Oc2cc(O)ccc21 [Compound 21, Liquiritin]
transport rate, membrane permeation in mock cells (mock HEK-293 cells; human, 10 min, 50 µmol/L): < 5 pmol·min^−1·mg^−1 protein | Presence in human samples (in vivo, po): Plasma, urine | Presence in rat samples ([1]; rat, in vivo, po): Plasma, bile, urine, feces | BCS Class [2]: BCS Class III

O=C(/C=C/c1ccc(O[C@@H]2O[C@H](CO)[C@@H](O)[C@H](O)[C@H]2O)cc1)c1ccc(O)cc1O [Compound 24, Isoliquiritin]
Presence in human samples [3]: Plasma, urine | Presence in rat samples ([1]; after orally dosing LianhuaQingwen, 3.78 g/kg): Plasma, bile, urine, feces

O=C(/C=C/c1ccc(O)cc1)c1ccc(O)cc1O [Compound 26, Isoliquiritigenin]
Presence in human samples [3]: Plasma, urine, feces

O=C(CCc1ccc(O)cc1)c1ccc(O)cc1O [Compound M27R, Davidigenin]
Presence in human samples (in vivo, po): Urine

C[C@]12CCC(=O)C=C1CC[C@@H]1[C@@H]2[C@@H](O)C[C@@]2(C)[C@H]1CC[C@]2(O)C(=O)CO [cortisol]
Km (human renal 11β-HSD2): 0.045 µM
